From ChEMBL document CHEMBL1201862, “PubChem BioAssay data set” (2004) come the findings set out here.

Activity calls are given as the source filed them. Rule as the data show it, for most assays here: actives have a measured EC50 and inactives only a lower limit.

Assay [1] addresses T1, Corticotropin-releasing factor receptor 2/Corticotropin-releasing factor-binding protein (Homo sapiens, UniProt P24387+Q13324).
T1 sequence (Q13324 whole entry): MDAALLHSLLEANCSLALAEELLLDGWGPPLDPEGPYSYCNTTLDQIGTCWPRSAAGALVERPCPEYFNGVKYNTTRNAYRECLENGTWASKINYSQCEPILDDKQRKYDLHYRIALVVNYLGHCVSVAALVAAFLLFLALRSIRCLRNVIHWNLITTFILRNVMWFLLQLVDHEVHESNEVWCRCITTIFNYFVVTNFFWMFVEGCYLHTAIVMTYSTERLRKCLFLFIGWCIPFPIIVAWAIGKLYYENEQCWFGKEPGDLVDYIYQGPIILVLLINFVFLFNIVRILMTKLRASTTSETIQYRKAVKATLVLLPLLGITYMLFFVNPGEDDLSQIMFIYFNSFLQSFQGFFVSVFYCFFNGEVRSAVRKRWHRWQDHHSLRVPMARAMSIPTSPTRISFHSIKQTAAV
T1 sequence (P24387 whole entry): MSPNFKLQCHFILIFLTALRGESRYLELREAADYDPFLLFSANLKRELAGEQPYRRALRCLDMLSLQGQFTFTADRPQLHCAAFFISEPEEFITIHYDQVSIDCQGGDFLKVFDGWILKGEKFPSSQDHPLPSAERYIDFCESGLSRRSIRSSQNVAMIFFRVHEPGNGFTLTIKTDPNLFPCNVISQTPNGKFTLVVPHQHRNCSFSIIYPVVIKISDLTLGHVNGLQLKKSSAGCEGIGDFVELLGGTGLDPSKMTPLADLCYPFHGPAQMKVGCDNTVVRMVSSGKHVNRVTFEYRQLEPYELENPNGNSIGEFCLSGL
Nature of the assay: activators of CRF receptor 2 with binding protein – uHTS hits, confirmation (AID 602473). Format: functional. Particulars: read-out: EC50_Mean.

Assay [2] concerns the target T1, Corticotropin-releasing factor receptor 2/Corticotropin-releasing factor-binding protein. Nature of the assay: Dose Response confirmation of uHTS hits for small molecule antagonists of the CRF-binding protein and CRF-R2 receptor complex. Format: functional. Particulars: read-out: IC50_Mean.
Assay [3] in a line: cells. Format: functional, cell-based.
A short description of assay [4]: cells. Format: functional, cell-based. This is another data set of the same source.
The test system of another assay is H4. Nature of the assay: Luminescence Cell-Based Dose Response HTS to Identify Activators of 5'UTR Stem-Loop Driven Prion Protein mRNA Translation in H4 Neuroglioblastoma Cells. [Related pubchem assays: 1829 (Project Summary), 1814 (Primary HTS)]. It is filed as functional. The conditions noted are these: Homo sapiens.
Assay [5] can be described thus: Luminescence Cell-Based Dose Confirmation HTS to Identify Activators of 5'UTR Stem-Loop Driven Alpha-Synuclein mRNA Translation in H4 Neuroglioblastoma Cells. [Related pubchem assays: 1829 (Project Summary), 1814 (Primary HTS)]. Format: functional.
A short description of assay [6]: Luminescence Cell-Based Dose Response HTS to Identify Activators of Luciferase Translation or Activity in H4 […] Cells. [Related pubchem assays: 1829 (Project Summary), 1814 (Primary HTS)]. Format: functional.
Assay [7] in a line: HIV-1 AD8 envelope cell-cell fusion blockers – cherry-pick, dose response (AID 652062).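 Also: luciferase signal from cell-cell fusion driven by HIV-1 clade B AD8 Env; potency is for inhibitors of fusion seen as a drop in luminescence.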 It is filed as functional, cell-based.
Assay [8] is described as follows: blockers of HIV-1 envelope-mediated cell-cell fusion – cherry-pick, dose response (AID 652057). It is filed as functional, cell-based.
The test system of assay [9] is Streptococcus sp. 'group A'. Nature of the assay: Streptococcus pyogenes SK(-)GAS viability under kanamycin – luminescence, BacTiterGlo, confirmation, counter-screen for streptokinase expression inhibitor project, dose response (AID 1900). It is filed as functional, organism-based.
Another assay has as its system Streptococcus. Nature of the assay: GAS UMAA2166 growth inhibition – luminescence, BacTiterGlo, counter-screen for streptokinase expression inhibitor project, dose response (AID 1915).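 Also: potency for reduction of bacterial viability or growth.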 It is filed as functional, organism-based. In general terms: A counterscreen serves to expose hits that act by an unwanted route or on another target.
Assay [10] in a line: microbe, parasite or virus in culture. It is filed as functional. Particulars: Mycobacterium tuberculosis.
The target in assay [11] is T2, Replicative DNA helicase DnaB (Mycobacterium tuberculosis, UniProt P9WMR3).
T2 sequence (P9WMR3 whole entry): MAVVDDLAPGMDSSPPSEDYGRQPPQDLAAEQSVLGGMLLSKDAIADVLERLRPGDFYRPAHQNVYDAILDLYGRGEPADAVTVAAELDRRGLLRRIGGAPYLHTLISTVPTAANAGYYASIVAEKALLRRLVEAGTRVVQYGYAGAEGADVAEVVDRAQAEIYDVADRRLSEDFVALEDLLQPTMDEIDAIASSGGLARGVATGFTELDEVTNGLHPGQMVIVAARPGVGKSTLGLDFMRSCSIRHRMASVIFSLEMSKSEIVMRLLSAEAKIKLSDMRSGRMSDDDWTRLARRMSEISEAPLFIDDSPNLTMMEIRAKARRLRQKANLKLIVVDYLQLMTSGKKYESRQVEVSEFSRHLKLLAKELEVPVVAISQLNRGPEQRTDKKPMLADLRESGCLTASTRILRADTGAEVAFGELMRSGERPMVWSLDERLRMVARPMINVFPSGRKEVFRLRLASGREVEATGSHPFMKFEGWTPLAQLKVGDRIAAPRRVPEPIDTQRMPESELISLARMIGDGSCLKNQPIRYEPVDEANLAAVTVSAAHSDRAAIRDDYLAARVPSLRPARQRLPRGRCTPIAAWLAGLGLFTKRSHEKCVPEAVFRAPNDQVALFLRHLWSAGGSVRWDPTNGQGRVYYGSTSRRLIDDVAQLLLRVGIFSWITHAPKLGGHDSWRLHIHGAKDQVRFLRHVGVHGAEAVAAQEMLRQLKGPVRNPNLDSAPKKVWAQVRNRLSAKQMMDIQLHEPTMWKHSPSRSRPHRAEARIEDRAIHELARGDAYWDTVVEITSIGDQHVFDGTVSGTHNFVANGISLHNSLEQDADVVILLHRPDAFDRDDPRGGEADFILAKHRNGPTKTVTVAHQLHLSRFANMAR
Nature of the assay: DnaB intein splicing inhibitors, dose response, biochemical, cell-free fluorescence (AID 449749). It is filed as functional.

The target in the next assay is T3, Protein RecA (Mycobacterium tuberculosis, UniProt P9WHJ3).
T3 sequence (P9WHJ3 whole entry): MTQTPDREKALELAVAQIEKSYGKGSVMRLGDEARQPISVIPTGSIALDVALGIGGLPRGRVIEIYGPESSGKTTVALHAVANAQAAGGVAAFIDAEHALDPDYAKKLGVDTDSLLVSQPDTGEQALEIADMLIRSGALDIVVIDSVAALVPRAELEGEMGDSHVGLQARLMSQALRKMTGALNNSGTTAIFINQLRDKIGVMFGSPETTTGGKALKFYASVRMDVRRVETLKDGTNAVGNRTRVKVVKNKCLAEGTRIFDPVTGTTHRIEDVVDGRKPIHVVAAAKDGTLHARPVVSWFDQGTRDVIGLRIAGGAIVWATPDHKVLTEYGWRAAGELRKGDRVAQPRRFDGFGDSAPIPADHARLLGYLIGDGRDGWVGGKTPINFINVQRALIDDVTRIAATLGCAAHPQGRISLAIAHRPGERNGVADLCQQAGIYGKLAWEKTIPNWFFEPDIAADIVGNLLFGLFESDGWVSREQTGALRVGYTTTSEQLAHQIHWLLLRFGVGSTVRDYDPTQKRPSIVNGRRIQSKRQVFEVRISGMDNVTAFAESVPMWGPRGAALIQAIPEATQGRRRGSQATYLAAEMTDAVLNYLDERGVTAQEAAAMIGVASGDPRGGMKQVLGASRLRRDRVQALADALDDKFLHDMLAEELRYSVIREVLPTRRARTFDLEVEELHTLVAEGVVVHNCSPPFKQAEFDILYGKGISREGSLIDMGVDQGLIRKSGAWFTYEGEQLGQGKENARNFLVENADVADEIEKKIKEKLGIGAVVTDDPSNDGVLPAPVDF
Briefly: Fluorescence Cell-Free Homogeneous Dose Retest to Identify Inhibitors of RecA-Intein Splicing Activity. [Related pubchem assays (depositor defined):AID2097, AID2223, AID489010, AID492950]. It is filed as functional.

On to `CCC(C)NC(=O)CSc1nc2ccccc2c(=O)n1CCCC(=O)NCC1CCCO1` (stereo unspecified), for which, in assay [1], the EC50 is > 53 µM (inactive). Further, the IC50 in assay [2] was > 47.1 µM (inactive).

Turning to `O=C(c1ccc(OC2CCN(CCc3ccccc3)CC2)cc1)N1CCCC(CCCO)C1` (stereo unspecified), the EC50 in the assay “cells [3]” and in the assay “cells [4]” was > 350 µM (not active) each time.

On to `O=C(O)C(c1ccccc1)C1(O)CCCC1` (stereo unspecified), for which, in assay [1], the EC50 was > 53 µM (inactive). Moreover, the IC50 in assay [2] is > 47.1 µM (inactive).

Take `Cc1ccc(S(=O)(=O)N(C)CC(=O)NCCCn2ccnc2)cc1`: the EC50 in the assay “cells [3]” and in the assay “cells [4]” was > 350 µM (not active) throughout.

On to `N#C/C(=C(/O)c1ccc(F)cc1)c1nc2ccccc2s1`, for which the EC50 was 7.41 µM (active) in the assay “cells [3]” and > 350 µM (not active) in the assay “cells [4]”.

As for `O=C(Cn1c(Cc2ccccc2)nc2ccccc21)NCc1ccc2c(c1)OCO2`, the EC50 in “cells [3]” and in “cells [4]” was > 350 µM (not active) each time.

Consider `Cc1ccc(NC2=NC(=O)c3cccc([N+](=O)[O-])c32)cc1`, for which the EC50 was 26.8 µM (active) with H4, 77.8 µM (active) in assay [5] and 26.7 µM (active) in assay [6].

On to `Cc1nn(-c2cccc([N+](=O)[O-])c2)c(N)c1-c1ccccc1`, for which the EC50 in assay [1] was > 53 µM (inactive). In addition, the IC50 in [2] is > 47.1 µM (inactive).

For the molecule `CC(=O)N1CCOc2ccc(S(=O)(=O)N3CCCCC3)cc21`, the EC50 (in the assay on H4; in [5]; in assay [6]) was > 120 µM (not active) each time.

In the case of `COc1ccc(NC(=O)CSc2nc(O)c3c(n2)CCC3)cc1OC`, the EC50 in the assay “cells [3]” and in the assay “cells [4]” was > 350 µM (not active) in each case.

In the case of `COc1ccc(OC2C(=O)N(Cc3ccc(F)cc3)C2c2cc(OC)c(OC)c(OC)c2)cc1` (stereo unspecified), the EC50 in assay [1] is > 53 µM (inactive). Besides, the IC50 in [2] was > 47.1 µM (inactive).

Take `CN(Cc1cccs1)C(=O)CSc1nc(N)cc(N)n1`: the EC50 in the assay “cells [3]” and in “cells [4]” was > 350 µM (not active) in each case.

By AC50 is commonly meant the midpoint of the concentration-response curve, whichever way the signal moves. For the molecule `CN1C(=O)C2(c3ccccc31)N(C)CC(c1ccccc1)C21SC(=S)N(Cc2ccco2)C1=O` (stereo unspecified), the figures for the AC50 in assay [7] and in assay [8] were 36.5 µM (active) and 46.4 µM (active), respectively.

In the case of `O=C(NCCCC1CCCC1)C1CCC(=O)N(Cc2cccc(F)c2)C1` (stereo unspecified), the EC50 (in the assay on H4; in assay [5]; in assay [6]) was > 120 µM (not active) each time.

As to `O=C(Nc1nc(-c2ccccn2)cs1)c1ccc(S(=O)(=O)N2CCCCC2)cc1`, the EC50 in assay [9] was 0.879 µM (active); with Streptococcus it was 2.56 µM (active); in the assay “cells [3]”, > 350 µM (not active); in “cells [4]” it was 13.4 µM (active).

With `Cn1c(CO)nc2c3ccccc3ccc21`, the EC50 in the assay “cells [3]” and in “cells [4]” was > 350 µM (not active) throughout.

Turning to `CCOc1ccc(CCNC(=O)C2CCCN(c3ncnc4c3nc3n4CCCCC3)C2)cc1` (stereo unspecified), the EC50 in [1] was > 53 µM (inactive). In assay [2], the IC50 was > 47.1 µM (inactive).

Consider `CSc1ccccc1N=C(S)NCc1ccc(Cl)cc1`, for which the EC50 with H4 was 9.9 µM (active); in assay [5], 4.54 µM (active); in assay [6], 5.76 µM (active).

Consider `CSc1ccccc1OCc1cc(C(=O)NCc2csc(C(C)C)n2)no1`, for which, in [1], the EC50 is > 53 µM (inactive). The IC50 in [2] was > 47.1 µM (inactive).

With `Cc1ccc(-c2nc3nc4ccccc4nc3n2Cc2ccco2)cc1`, the EC50 was 21.9 µM (active) in assay [5] and 13.2 µM (active) in [6].

Take `CNC(=O)C1CCN(S(=O)(=O)c2c(C)noc2/C=C/c2ccccc2F)CC1`: the EC50 in the assay with H4 is > 120 µM (not active); in assay [5], 21.8 µM (active); in assay [6], 12.8 µM (active).

In the case of `O=C(c1cccc(C(F)(F)F)c1)C1CCCN(C(=O)Cn2cncn2)C1` (stereo unspecified), the EC50 in “cells [3]” and in “cells [4]” was > 350 µM (not active) throughout.

Regarding `CCOC(=O)c1c(NC(=O)CCl)sc(CN(C)C)c1-c1ccccc1`, in assay [10], the CC50 was 12.5 µM (active). Besides, in assay [11], the AC50 is 20.4 µM (active). At Protein RecA, the EC50 was 7.5 µM (active).

Consider `CC1(C)Cc2c(sc(/N=C/N3CCCC3)c2C#N)C(C)(C)N1`, for which the EC50 in assay [1] was > 53 µM (inactive). In addition, in [2], the IC50 is > 47.1 µM (inactive).

As for `CN(C)c1ccc(/C=N/NC(=S)NCc2ccco2)cc1`, the results for the EC50 (in the assay with H4; in assay [5]; in assay [6]) were > 120 µM (not active), 15.3 µM (active) and 8.41 µM (active), respectively.

In the case of `COc1ccc(N2/C(=N/C(=O)CCC3CCCC3)SC3CS(=O)(=O)CC32)cc1` (stereo unspecified), the EC50 in the assay “cells [3]” and in “cells [4]” was > 350 µM (not active) throughout.
